Results from ChEMBL document CHEMBL1177684, “Synthesis, molecular modeling, and biological evaluation of cinnamic acid metronidazole ester derivatives as novel anticancer agents” (Bioorg Med Chem, 2010).

Key:
MCF7 = experiment: Antiproliferative activity against human MCF7 cells after 48 hrs by MTT assay; conditions: MCF7, 48 h
[1] = biological target: Receptor tyrosine-protein kinase erbB-2 (Homo sapiens, UniProt P04626)
Description: Inhibition of human recombinant His6x-tagged HER2 autophosphorylation expressed in Sf9 cells after 1 hr by ELISA

[2] = biological target: Epidermal growth factor receptor (Homo sapiens, UniProt P00533)
Chain of Epidermal growth factor receptor (P00533 whole entry): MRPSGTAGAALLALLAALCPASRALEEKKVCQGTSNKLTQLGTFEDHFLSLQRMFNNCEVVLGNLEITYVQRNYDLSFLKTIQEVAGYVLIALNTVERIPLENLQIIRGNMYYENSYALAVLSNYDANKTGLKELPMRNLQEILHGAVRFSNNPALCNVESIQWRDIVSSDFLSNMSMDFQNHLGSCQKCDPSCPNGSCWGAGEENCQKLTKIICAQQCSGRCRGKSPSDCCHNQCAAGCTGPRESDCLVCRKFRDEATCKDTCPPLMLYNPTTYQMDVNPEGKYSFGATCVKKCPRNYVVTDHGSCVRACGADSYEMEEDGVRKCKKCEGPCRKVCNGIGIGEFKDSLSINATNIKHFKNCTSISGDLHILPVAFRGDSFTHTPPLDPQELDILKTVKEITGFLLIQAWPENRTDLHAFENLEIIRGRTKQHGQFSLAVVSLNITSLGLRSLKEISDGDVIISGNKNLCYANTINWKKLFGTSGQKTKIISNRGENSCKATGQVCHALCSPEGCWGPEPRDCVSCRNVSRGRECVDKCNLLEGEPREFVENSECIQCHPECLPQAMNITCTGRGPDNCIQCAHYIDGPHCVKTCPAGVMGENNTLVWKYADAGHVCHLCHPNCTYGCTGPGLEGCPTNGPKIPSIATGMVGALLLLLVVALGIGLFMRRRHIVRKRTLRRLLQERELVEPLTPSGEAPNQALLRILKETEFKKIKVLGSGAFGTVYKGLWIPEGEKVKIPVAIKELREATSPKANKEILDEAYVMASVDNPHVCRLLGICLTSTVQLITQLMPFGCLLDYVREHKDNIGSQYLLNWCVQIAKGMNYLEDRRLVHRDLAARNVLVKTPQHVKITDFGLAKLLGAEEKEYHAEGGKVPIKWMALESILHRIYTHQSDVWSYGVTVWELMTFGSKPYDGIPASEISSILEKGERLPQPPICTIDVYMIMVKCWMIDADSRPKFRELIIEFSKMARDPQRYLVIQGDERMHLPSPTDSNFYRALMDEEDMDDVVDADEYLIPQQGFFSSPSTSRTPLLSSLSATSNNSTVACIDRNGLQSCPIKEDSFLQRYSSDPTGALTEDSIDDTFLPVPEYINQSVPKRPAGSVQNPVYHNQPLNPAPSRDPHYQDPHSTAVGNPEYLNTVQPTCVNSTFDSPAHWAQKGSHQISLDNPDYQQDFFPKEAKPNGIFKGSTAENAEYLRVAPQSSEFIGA
Description: Inhibition of human recombinant His6x-tagged EGFR autophosphorylation expressed in Sf9 cells after 1 hr by ELISA

Chain of Receptor tyrosine-protein kinase erbB-2 (P04626 whole entry): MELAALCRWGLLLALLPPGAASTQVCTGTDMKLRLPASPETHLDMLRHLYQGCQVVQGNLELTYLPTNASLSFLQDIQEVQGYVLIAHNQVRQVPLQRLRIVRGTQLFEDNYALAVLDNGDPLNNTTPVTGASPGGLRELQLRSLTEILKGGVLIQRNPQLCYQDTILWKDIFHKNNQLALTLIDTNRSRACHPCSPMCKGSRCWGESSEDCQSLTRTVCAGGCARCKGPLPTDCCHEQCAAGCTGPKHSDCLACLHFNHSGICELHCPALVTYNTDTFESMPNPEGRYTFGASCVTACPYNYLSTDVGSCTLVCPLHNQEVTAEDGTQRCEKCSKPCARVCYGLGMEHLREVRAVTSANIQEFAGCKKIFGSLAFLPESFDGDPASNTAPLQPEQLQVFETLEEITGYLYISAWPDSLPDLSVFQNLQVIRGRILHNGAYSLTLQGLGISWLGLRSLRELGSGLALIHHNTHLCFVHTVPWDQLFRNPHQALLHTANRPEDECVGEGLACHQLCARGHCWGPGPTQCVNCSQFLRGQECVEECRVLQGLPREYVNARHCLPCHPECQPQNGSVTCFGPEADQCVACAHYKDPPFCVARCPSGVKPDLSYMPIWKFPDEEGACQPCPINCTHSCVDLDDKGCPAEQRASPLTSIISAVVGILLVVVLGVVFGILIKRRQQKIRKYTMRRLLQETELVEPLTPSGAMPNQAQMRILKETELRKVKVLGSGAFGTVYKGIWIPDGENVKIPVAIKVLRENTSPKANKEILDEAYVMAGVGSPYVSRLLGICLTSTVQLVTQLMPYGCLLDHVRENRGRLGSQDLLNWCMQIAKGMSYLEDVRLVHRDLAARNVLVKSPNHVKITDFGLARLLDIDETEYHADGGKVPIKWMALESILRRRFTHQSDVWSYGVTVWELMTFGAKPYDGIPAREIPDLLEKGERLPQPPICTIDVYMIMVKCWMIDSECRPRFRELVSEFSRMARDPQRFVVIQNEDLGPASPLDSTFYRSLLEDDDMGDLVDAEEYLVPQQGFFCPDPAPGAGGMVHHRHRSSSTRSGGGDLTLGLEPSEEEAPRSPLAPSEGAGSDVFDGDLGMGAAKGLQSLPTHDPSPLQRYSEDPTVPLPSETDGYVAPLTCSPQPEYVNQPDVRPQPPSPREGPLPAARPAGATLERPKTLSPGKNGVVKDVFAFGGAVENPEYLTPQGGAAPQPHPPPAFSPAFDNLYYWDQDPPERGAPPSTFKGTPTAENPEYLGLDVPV

| Compound | IC50 (MCF7) | IC50 [1] | IC50 [2] |
| --- | --- | --- | --- |
| Cc1ncc([N+](=O)[O-])n1CCOC(=O)/C=C/c1cccc2ccccc12 | 3.4 µM | 5.03 µM | 3.88 µM |
| Cc1ncc([N+](=O)[O-])n1CCOC(=O)/C=C/c1ccc2ccccc2c1 | 4.1 µM | 9.24 µM | 5.76 µM |
| COc1ccccc1/C=C/C(=O)OCCn1c([N+](=O)[O-])cnc1C | 20 µM | > 50 µM | 32 µM |
| Cc1ncc([N+](=O)[O-])n1CCOC(=O)/C=C/c1ccccc1F | 15 µM | 41.3 µM | 26.7 µM |
| Cc1ncc([N+](=O)[O-])n1CCOC(=O)/C=C/c1ccccc1Cl | 18 µM | 36.5 µM | 20.8 µM |
| Cc1ncc([N+](=O)[O-])n1CCOC(=O)/C=C/c1ccccc1Br | 16 µM | 44.8 µM | 24.3 µM |
| Cc1ncc([N+](=O)[O-])n1CCOC(=O)/C=C/c1cccc([N+](=O)[O-])c1 | 5.68 µM | 19.3 µM | 14.5 µM |
| Cc1ncc([N+](=O)[O-])n1CCOC(=O)/C=C/c1ccc(-c2ccccc2)cc1 | 0.36 µM | 2.15 µM | 0.62 µM |
| Cc1ncc([N+](=O)[O-])n1CCOC(=O)/C=C/c1ccc(OCc2ccccc2)cc1 |  | 3.46 µM |  |
| Cc1ncc([N+](=O)[O-])n1CCOC(=O)/C=C/c1ccccc1[N+](=O)[O-] | 17 µM | 40 µM | 25 µM |

Next, values leading:

| IC50 (MCF7) | IC50 [1] | IC50 [2] | Compound |
| --- | --- | --- | --- |
| 3.76 µM | 5.84 µM | 4.12 µM | Cc1ncc([N+](=O)[O-])n1CCOC(=O)/C=C/c1ccc(F)cc1 |
| 3.05 µM | 4.77 µM | 3.62 µM | Cc1ncc([N+](=O)[O-])n1CCOC(=O)/C=C/c1ccc(Cl)cc1 |
| 5.88 µM | 16.8 µM | 12.4 µM | Cc1ncc([N+](=O)[O-])n1CCOC(=O)/C=C/c1cccc(F)c1 |
| 5.75 µM | 18.8 µM | 13.9 µM | COc1cccc(/C=C/C(=O)OCCn2c([N+](=O)[O-])cnc2C)c1 |
| 2.45 µM | 4.65 µM | 3.24 µM | Cc1ncc([N+](=O)[O-])n1CCOC(=O)/C=C/c1ccc(Br)cc1 |
| 4.41 µM | 10.8 µM | 7.83 µM | Cc1ncc([N+](=O)[O-])n1CCOC(=O)/C=C/c1ccccc1 |
| 4.28 µM | 9.65 µM | 8.11 µM | Cc1ccc(/C=C/C(=O)OCCn2c([N+](=O)[O-])cnc2C)cc1 |
| 5.49 µM | 14.3 µM | 10.8 µM | COc1ccc(/C=C/C(=O)OCCn2c([N+](=O)[O-])cnc2C)cc1 |
| 4.96 µM | 9.97 µM | 6.82 µM | Cc1ncc([N+](=O)[O-])n1CCOC(=O)/C=C/c1ccc(C(C)C)cc1 |
